Measurements from ChEMBL document CHEMBL5528002, “Identification of selective 5-LOX and FLAP inhibitors as novel anti-inflammatory agents by ligand-based virtual screening” (Eur J Med Chem, 2024).
The source made the active and inactive calls. The calls are words filed in the database; no cut-off is given here.

Experiments:
Macrophage cell line [1] = test: Effect on lipid mediator formation in human M1-like phenotype MDM cells by measuring 14-HDHA formation at 10 uM pre-incubated for 15 mins followed by SACM stimulation and measured after 90 mins by UPLC-MS/MS analysis relative to control; type: functional; details: time 105 min, 1.75 h
Macrophage cell line [2] = test: Effect on lipid mediator formation in human M2-like phenotype MDM cells by measuring LTB4 formation at 10 uM pre-incubated for 15 mins followed by SACM stimulation and measured after 90 mins by UPLC-MS/MS analysis relative to control; type: functional; details: time 105 min, 1.75 h
Macrophage cell line [3] = test: Effect on lipid mediator formation in human M1-like phenotype MDM cells by measuring EPA formation at 10 uM pre-incubated for 15 mins followed by SACM stimulation and measured after 90 mins by UPLC-MS/MS analysis relative to control; type: functional; details: time 105 min, 1.75 h
Macrophage cell line [4] = test: Effect on lipid mediator formation in human M2-like phenotype MDM cells by measuring PGD2 formation at 10 uM pre-incubated for 15 mins followed by SACM stimulation and measured after 90 mins by UPLC-MS/MS analysis (reference value: 48 +/- 13 pg/ml); type: functional; details: time 105 min, 1.75 h
Macrophage cell line [5] = test: Effect on lipid mediator formation in human M2-like phenotype MDM cells by measuring 12-HETE formation at 10 uM pre-incubated for 15 mins followed by SACM stimulation and measured after 90 mins by UPLC-MS/MS analysis relative to control; type: functional; details: time 105 min, 1.75 h
Macrophage cell line [6] = test: Effect on lipid mediator formation in human M2-like phenotype MDM cells by measuring TXB2 formation at 10 uM pre-incubated for 15 mins followed by SACM stimulation and measured after 90 mins by UPLC-MS/MS analysis relative to control; type: functional; details: time 105 min, 1.75 h
Macrophage cell line [7] = test: Effect on lipid mediator formation in human M2-like phenotype MDM cells by measuring MaR2 formation at 10 uM pre-incubated for 15 mins followed by SACM stimulation and measured after 90 mins by UPLC-MS/MS analysis (reference value: 16 +/- 1 pg/ml); type: functional; details: time 105 min, 1.75 h
Macrophage cell line [8] = test: Effect on lipid mediator formation in human M2-like phenotype MDM cells by measuring 14-HDHA formation at 10 uM pre-incubated for 15 mins followed by SACM stimulation and measured after 90 mins by UPLC-MS/MS analysis relative to control; type: functional; details: time 105 min, 1.75 h
Macrophage cell line [9] = test: Effect on lipid mediator formation in human M1-like phenotype MDM cells by measuring EPA formation at 10 uM pre-incubated for 15 mins followed by SACM stimulation and measured after 90 mins by UPLC-MS/MS analysis (reference value: 20261 +/- 1404 pg/ml); type: functional; details: time 105 min, 1.75 h
Macrophage cell line [10] = test: Effect on lipid mediator formation in human M1-like phenotype MDM cells by measuring TXB2 formation at 10 uM pre-incubated for 15 mins followed by SACM stimulation and measured after 90 mins by UPLC-MS/MS analysis relative to control; type: functional; details: time 105 min, 1.75 h
Macrophage cell line [11] = test: Effect on lipid mediator formation in human M2-like phenotype MDM cells by measuring 4-HDHA formation at 10 uM pre-incubated for 15 mins followed by SACM stimulation and measured after 90 mins by UPLC-MS/MS analysis (reference value: 58 +/- 8 pg/ml); type: functional; details: time 105 min, 1.75 h
[12] = target: T1, Polyunsaturated fatty acid 5-lipoxygenase (Homo sapiens, UniProt P09917); test: Inhibition of human recombinant 5-LOX expressed in Escherichia coli BL21(DE3) using arachidonic acid as substrate preincubated with compound for 15 mins followed by substrate and CaCl2 addition measured after 10 mins by RP-HPLC analysis
T1 sequence (P09917 whole entry): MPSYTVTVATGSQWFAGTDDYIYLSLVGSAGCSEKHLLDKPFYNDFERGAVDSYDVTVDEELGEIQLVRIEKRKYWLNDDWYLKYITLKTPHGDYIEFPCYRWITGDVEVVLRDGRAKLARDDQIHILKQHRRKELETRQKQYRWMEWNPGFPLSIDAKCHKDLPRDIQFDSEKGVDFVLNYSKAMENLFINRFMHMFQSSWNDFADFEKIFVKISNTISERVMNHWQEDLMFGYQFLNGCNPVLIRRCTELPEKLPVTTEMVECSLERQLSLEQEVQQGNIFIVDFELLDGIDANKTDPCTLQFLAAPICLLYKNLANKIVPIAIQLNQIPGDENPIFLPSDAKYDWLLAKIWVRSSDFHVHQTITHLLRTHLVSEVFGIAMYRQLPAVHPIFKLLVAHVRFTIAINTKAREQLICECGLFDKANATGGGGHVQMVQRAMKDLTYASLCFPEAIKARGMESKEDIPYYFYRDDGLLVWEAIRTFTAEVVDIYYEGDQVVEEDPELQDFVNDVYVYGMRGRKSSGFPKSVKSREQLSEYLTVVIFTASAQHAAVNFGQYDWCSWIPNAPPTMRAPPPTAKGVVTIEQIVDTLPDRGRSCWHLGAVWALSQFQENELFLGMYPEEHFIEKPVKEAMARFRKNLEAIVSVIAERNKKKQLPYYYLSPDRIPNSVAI

[13] = Antioxidant activity assessed as DPPH radical scavenging activity at 1 uM incubated for 30 min by DPPH assay; type: functional
Macrophage cell line [14] = test: Effect on lipid mediator formation in human M2-like phenotype MDM cells by measuring 5S,6R-diHETE formation at 10 uM pre-incubated for 15 mins followed by SACM stimulation and measured after 90 mins by UPLC-MS/MS analysis relative to control; type: functional; details: time 105 min, 1.75 h
Macrophage cell line [15] = test: Effect on lipid mediator formation in human M2-like phenotype MDM cells by measuring 12-HEPE formation at 10 uM pre-incubated for 15 mins followed by SACM stimulation and measured after 90 mins by UPLC-MS/MS analysis relative to control; type: functional; details: time 105 min, 1.75 h
Macrophage cell line [16] = test: Effect on lipid mediator formation in human M2-like phenotype MDM cells by measuring 15-HEPE formation at 10 uM pre-incubated for 15 mins followed by SACM stimulation and measured after 90 mins by UPLC-MS/MS analysis (reference value: 1385 +/- 343 pg/ml); type: functional; details: time 105 min, 1.75 h
Macrophage cell line [17] = test: Effect on lipid mediator formation in human M2-like phenotype MDM cells by measuring t-LTB4 formation at 10 uM pre-incubated for 15 mins followed by SACM stimulation and measured after 90 mins by UPLC-MS/MS analysis (reference value: 426 +/- 49 pg/ml); type: functional; details: time 105 min, 1.75 h
Macrophage cell line [18] = test: Effect on lipid mediator formation in human M1-like phenotype MDM cells by measuring DHA formation at 10 uM pre-incubated for 15 mins followed by SACM stimulation and measured after 90 mins by UPLC-MS/MS analysis (reference value: 66334 +/- 8894 pg/ml); type: functional; details: time 105 min, 1.75 h

SMILES: COc1ccc(C2=C/C(=C/c3ccc(O)cc3O)C(=O)O2)cc1
- Activity (Macrophage cell line [1]): 94%
- Activity (Macrophage cell line [2]): 4%
- Activity (Macrophage cell line [3]): 136%
- Activity (Macrophage cell line [4]): 96 pg/mL
- Activity (Macrophage cell line [5]): 114%
- Activity (Macrophage cell line [6]): 76%
- Activity (Macrophage cell line [7]): 36 pg/mL
- Activity (Macrophage cell line [8]): 179%
- Activity (Macrophage cell line [9]): 27649 pg/mL
- Activity (Macrophage cell line [10]): 94%
- Activity (Macrophage cell line [11]): 49 pg/mL
- IC50 [12]: > 10 µM
- Activity [13]: inactive
- Activity (Macrophage cell line [14]): 4%
- Activity (Macrophage cell line [15]): 144%
- Activity (Macrophage cell line [16]): 2169 pg/mL
- Activity (Macrophage cell line [17]): 48 pg/mL
- Activity (Macrophage cell line [18]): 71742 pg/mL

SMILES: Oc1ccc(CCC2CCC(c3ccc(O)cc3)CO2)cc1 (stereo unspecified)
- Activity (Macrophage cell line [1]): 89%
- Activity (Macrophage cell line [2]): 14%
- Activity (Macrophage cell line [3]): 113%
- Activity (Macrophage cell line [4]): 62 pg/mL
- Activity (Macrophage cell line [5]): 122%
- Activity (Macrophage cell line [6]): 86%
- Activity (Macrophage cell line [7]): 31 pg/mL
- Activity (Macrophage cell line [8]): 139%
- Activity (Macrophage cell line [9]): 22962 pg/mL
- Activity (Macrophage cell line [10]): 94%
- Activity (Macrophage cell line [11]): 58 pg/mL
- IC50 [12]: > 10 µM
- Activity [13]: inactive
- Activity (Macrophage cell line [14]): 7%
- Activity (Macrophage cell line [15]): 128%
- Activity (Macrophage cell line [16]): 1937 pg/mL
- Activity (Macrophage cell line [17]): 84 pg/mL
- Activity (Macrophage cell line [18]): 62371 pg/mL
